What was measured:
[1] = system: humanized sickle cell (SS) mice exposed to H/R stress; test: Humanized SCD (SS) mice exposed to hypoxia/reoxygenation (H/R) stress: blood, flow cytometry, immunoblot; type: in vivo
Method: (§1) Animals and design of the study: Experiments were performed on 4-5 months-old sex matched healthy control (Hba^tm1(HBA) Tow Hbb^tm3(HBG1, HBB) Tow) and SCD (Hba^tm1(HBA)Tow Hbb^tm2(HBG1.HBB*)Tow) mice. The study used 4-5 months-old mice. The sickle cell related organ damage is not so severe to generate confounding factors when the impact of H/R induced stress is evaluated. This is also corroborated by the observation of Kasztan M et al who show gender-related differences in kidney function of humanized SCD mice becoming significant after 24 weeks (6 months) of age. The size of the mouse groups was established based on studies with the same mouse model for SCD generated by us and other labs. Mice were randomly assigned to the different treatment groups and analysis. Healthy and SS mice were treated with ether vehicle (hydroxypropyl methyl cellulose, HPMC, 0.5%) or Epeleuton in HPMC 0.5% (1000 mg/kg/day) administrated by gavage for 6 weeks. […] When indicated, mice underwent a hypoxia/reoxygenation stress (H/R): 10 hours hypoxia (8% oxygen) followed by 3 hours reoxygenation (21% oxygen) to mimic acute vaso-occlusive crisis as previously described. Whole blood and organs were collected from each mouse under isoflurane anesthesia. Organs were immediately removed and divided into two portions which were either immediately frozen in liquid nitrogen or fixed in 10% formalin and embedded in paraffin for histology. Hematological parameters were evaluated with a Sysmex XN-1000 Hematology Analyzer and red cell morphology was evaluated as previously reported. Biochemical assays were performed using standard biochemical assays, as previously reported. Plasmatic Pentraxin 2 and CCL-2 and CXCL-2 were measured respectively using the Mouse Pentraxin 2/SAP Quantikine ELISA Kit and the next generation ELISA kit according to the manufacturer's instruction.
(§2) Immunoblot analysis: Packed red cells were lysed in ice-cold phosphate lysis buffer (5 mM Na2HPO4, pH 8.0, containing protease inhibitor cocktail tablets, 3 mM benzamidine final concentration, 1 mM Na3VO4 final concentration) and centrifuged 10 min at 4° C. at 12,000 g. Red cell membrane (ghost) and cytosol fractions were obtained as previously reported. Frozen lung, kidney and aorta from each studied group were homogenized and lysed with iced lyses buffer (150 mM NaCl, 25 mM bicine, 0.1% SDS, 2% Triton X-100, 1 mM EDTA, protease inhibitor cocktail tablets, 1 mM Na3VO4 final concentration) then centrifuged 30 min at 4° C. at 12,000 g. Specific antibodies used are: anti Phospho-Tyrosine (clone PY99 from SCBT, Santa Cruz, CA (dilution 1:3000, 75 μg loaded) and clone 4G10 from Merck KGaA, Darmstadt, Germany (dilution 1:1600, 75 μgr loaded)); anti Phospho (Ser536) NF-kB p65 (dilution 1:1000, 75 μg loaded) and anti NF-kB p65 (clone C22B4) (dilution 1:1000, 75 μgr loaded) from Cell Signaling Technology (Danvers, MA, USA); anti-NLRP3/NALP3 from Vinci-Biochem Srl, Vinci, Italy (dilution 1:1000, 75 μgr loaded); anti Endothelin-1 (ET-1) form AbCam, Cambridge, UK (dilution 1:1000, 75 μgr loaded); anti VCAM-1 (R and D Systems, Minneapolis, MN, USA (dilution 1:1000, 40 μgr loaded)); anti ICAM-1 (clone EP1442Y, dilution 1:1000, 75 μgr loaded, AbCam, Cambridge, UK); anti TXAS-1 (Cayman, Ann Arbor, MI, USA); anti Nrf2-phospho-S40 (Clone EP1809Y, dilution 1:1000, 75 μgr loaded, AbCam, Cambridge, UK); anti-Nrf2 (dilution 1:1000, 75 μgr loaded, AbCam, Cambridge, UK); anti Nqo1 from Santa Cruz Biotechnology, Inc, CA, USA (clone C-19; dilution 1:1000, 75 μgr/μl loaded); anti-heme oxygenase 1(HO-1) form SCBT (Santa Cruz, CA, USA (dilution 1:1000, 50 μgr loaded); E-selectin (H-300) (dilution 1:1000, 75 μgr loaded); anti GAPDH from SCBT (Santa Cruz, CA, USA (dilution 1:5000, 50 μgr loaded)); anti Actin from SCBT (Santa Cruz, CA, USA (clone 2A3, dilution 1:1000, 50 μgr/loaded)). […]

[2] = system: humanized sickle cell (SS) mice; test: Humanized SCD (SS) mice under normoxia, 6 weeks treatment; type: in vivo; conditions: 1000 mg/Kg/d for 6 weeks
Method: as §1, §2

[3] = H/R, 1000 mg/Kg/d for 6 weeks, vs vehicle
[4] = H/R, 1000 mg/Kg/day for 6 weeks

CC/C=C\C[C@H](O)/C=C/C=C\C/C=C\C/C=C\CCCC(=O)OCC [DS102, 15(S)-hydroxy-(5Z,8Z,11Z,13E,17Z)-eicosapentaenoic acid ethyl ester] was tested, and the “spleen macrophage classic inflammatory markers (CD80, CD68)” value ([1]; 1000 mg/Kg/day for 6 weeks, vs vehicle) was “significant reduction”, the “H/R induced increase in NLRP3, VCAM-1, ET-1 and TXAS-1 expression in kidney” value ([1]; H/R, 1000 mg/Kg/d for 6 weeks) was “reduction” and the “NLRP3 inflammasome in lung tissue” value ([1]; H/R, 1000 mg/Kg/d for 6 weeks) was “downregulation”. For the same compound, the VCAM-1 in livers ([1]; H/R, 1000 mg/Kg/d for 6 weeks) was “prevented the H/R induced up-regulation”, the “activation of NF-kB p65 and Nrf2 in liver” value ([1]; H/R, 1000 mg/Kg/d for 6 weeks) was “reduced activation” and the “active forms of NF-kB p65 induced by H/R in lung” value ([1]; H/R, 1000 mg/Kg/d for 6 weeks) was “significant decrease”. For the same compound, the “antioxidants NQO1 and HO-1 in liver” value ([1]; H/R, 1000 mg/Kg/d for 6 weeks) was “downregulation”, the “expression of NLRP3 in livers” value ([1]; H/R, 1000 mg/Kg/d for 6 weeks) was “lower expression” and the liver protein oxidation ([1]; H/R, 1000 mg/Kg/d for 6 weeks) was “marked reduction”. The ET-1 in livers [1, 3] was “trend towards reduction”, the “H/R induced activation of NF-kB p65 in kidneys” value [1, 3] was “decreased” and the “H/R induced expression of VCAM-1 in isolated aorta” value [1, 3] was “significant reduction”. The “H/R-induced increases in creatinine and BUN plasma values” [1, 3] was “reduction”, the “leukocyte infiltrates in kidneys (flow cytometry)” value [1, 3] was “significant reduction” and the “H/R-induced increase in neutrophil counts” value [1, 4] was “significantly reduced”. For the same compound, the “amount of sickled red blood cells” value [1, 4] was “decreased”, the “hematocrit (Hct) and hemoglobin (Hb)” value [1, 4] was “prevented the H/R induced reduction” and the “plasma C reactive protein (CRP) and pentraxin-2” value [1, 4] was “decreased”. The spleen neutrophils ([1]; H/R, 1000 mg/Kg/day for 6 weeks, vs vehicle) was “significant decrease”, the “lactate dehydrogenase (LDH)” value ([1]; H/R, plasma, 1000 mg/Kg/day for 6 weeks) was “reduction” and the “tyrosine phosphorylation state of band 3” value ([1]; H/R, red cell membrane, 1000 mg/Kg/day for 6 weeks) was “reduction”. For the same compound, the “clearance of damaged RBCs” value ([1]; spleen macrophages, 1000 mg/Kg/day for 6 weeks, vs vehicle) was “trend towards reduction”, the “tolerability and body weight” value [2] was “well tolerated without major changes in body weight” and the ALT ([2]; normoxia) was “significant reduction”. The AST ([2]; normoxia) was “no change”, the CRP ([2]; normoxia) was “significant reduction” and the circulating neutrophils ([2]; normoxia) was “significant reduction”. For the same compound, the “expression of VCAM-1, ICAM1 and endothelin-1 (ET-1) in lungs, kidneys, livers” value ([2]; normoxia) was “significantly reduction”, the liver protein oxidation ([2]; normoxia) was “marked reduction” and the pentraxin-2 ([2]; normoxia) was “trend toward a reduction”. For the same compound, the “plasma CCL2/MCP1” value ([2]; normoxia) was “lower”, the BUN ([2]; normoxia, vs vehicle) was “no change” and the “activation of NF-kB in lungs, kidneys, and livers” value ([2]; normoxia, vs vehicle) was “significantly reduced”. The “expression of ICAM-1 and ET-1 in isolated aortas” value ([2]; normoxia, vs vehicle) was “significantly down-regulated”, the serum creatinine ([2]; normoxia, vs vehicle) was “trend toward a reduction” and the “hematocrit or reticulocyte counts” value ([2]; normoxic conditions) was “no significant changes”.
